# According to ChEMBL document CHEMBL1201862, “PubChem BioAssay data set” (2004):
#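 In this assay, cells in 96-well plates receive the compound at five concentrations for 48 hours. Endpoints are linearly interpolated between the surrounding concentrations. Here, GI50 denotes the concentration required for 50% inhibition of growth.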 Calls of active or inactive are those of the source. Cut-off read from the data, not from the text of the source: active = GI50 up to about 1.1 µM and inactive = higher.
# Key:
# Experiment in all cases: growth of human tumour cells (NCI), 48 h
# [1] = system: XF498
# [2] = system: DLD-1
# [3] = system: DMS-114
# [4] = system: SNB-78
# [5] = system: KM-20L2
# [6] = system: DMS-273
# [7] = system: HOP-18
# [8] = system: RXF 631
# [9] = system: M19-MEL
SMILES,GI50 [1],GI50 [2],GI50 [3],GI50 [4],GI50 [5],GI50 [6],GI50 [7],GI50 [8],GI50 [9]
COc1cc(-c2ccc(Nc3ccccc3C(=O)O)c(OC)c2)ccc1Nc1ccccc1C(=O)O,> 40.1 µM (inactive),> 28 µM (inactive),25.4 µM (inactive),32 µM (inactive),> 56 µM (inactive),1.81 µM (inactive),> 100 µM (inactive),,
CN(C(=O)C12C3C4C5C3C1(C(=O)O)C5C42)C(C)(C)C (centres undefined),> 100 µM (inactive),23.7 µM (inactive),28.9 µM (inactive),> 100 µM (inactive),> 100 µM (inactive),16.5 µM (inactive),> 100 µM (inactive),> 100 µM (inactive),> 100 µM (inactive)
O=c1c(-c2ccccc2)c2oc(c1-c1ccccc1)CSCc1cccc(c1)CSC2,,54.7 µM (inactive),36.9 µM (inactive),82.8 µM (inactive),67.9 µM (inactive),39.5 µM (inactive),27.8 µM (inactive),,45.9 µM (inactive)
CC[C@@]1(O)C(=O)OCc2c1c(Cl)c1n(c2=O)Cc2cc3ccccc3nc2-1,3.07 µM (inactive),6.68 µM (inactive),1.35 µM (inactive),7.18 µM (inactive),4.47 µM (inactive),0.605 µM (active),3.21 µM (inactive),2.48 µM (inactive),1.67 µM (inactive)
C[n+]1c2ccccc2c(CNCC(=O)O)c2ccccc21,2.14 µM (inactive),0.659 µM (active),2.13 µM (inactive),11.3 µM (inactive),0.327 µM (active),0.646 µM (active),10.3 µM (inactive),,4.43 µM (inactive)
CCOc1ccc(NC(=O)CC2C(=O)Nc3ccccc3[S+]2[O-])cc1 (centres undefined),38.8 µM (inactive),> 100 µM (inactive),,> 100 µM (inactive),> 46.5 µM (inactive),> 67.1 µM (inactive),> 100 µM (inactive),> 84.9 µM (inactive),> 100 µM (inactive)
Cc1ccc(S(=O)(=O)NC2(C=O)CCC(C(C)(C)C)CC2)cc1 (centres undefined),43.8 µM (inactive),35.2 µM (inactive),20.4 µM (inactive),> 100 µM (inactive),28.8 µM (inactive),27.7 µM (inactive),29.2 µM (inactive),31.8 µM (inactive),24.7 µM (inactive)
N#CC1=C(c2ccccc2)OC2(N)OC(c3ccccc3)=C(C#N)C12C#N (centres undefined),> 100 µM (inactive),> 100 µM (inactive),51.5 µM (inactive),> 100 µM (inactive),> 100 µM (inactive),> 100 µM (inactive),21.6 µM (inactive),> 100 µM (inactive),> 100 µM (inactive)
C[Si](C)(c1ccccc1)C1CC(=O)CC(=O)C1,> 100 µM (inactive),> 100 µM (inactive),> 100 µM (inactive),> 100 µM (inactive),> 100 µM (inactive),> 100 µM (inactive),> 100 µM (inactive),,> 100 µM (inactive)
COc1nc2c(c(O)c(C)c(=O)n2OC2OCC(OC(C)=O)C(OC(C)=O)C2OC(C)=O)c(=O)n1C (centres undefined),> 100 µM (inactive),> 100 µM (inactive),> 100 µM (inactive),> 100 µM (inactive),> 100 µM (inactive),> 100 µM (inactive),,,> 100 µM (inactive)
C[N+](C)(C)CC(=O)N/N=C(/C=C/c1ccccc1)CC1OC(=O)c2ccccc21 (centres undefined),> 100 µM (inactive),> 100 µM (inactive),> 100 µM (inactive),> 100 µM (inactive),> 100 µM (inactive),> 100 µM (inactive),> 100 µM (inactive),,> 100 µM (inactive)
O=C(O)/C(Cl)=C(\Cl)Nc1cccc(C(F)(F)F)c1,> 100 µM (inactive),> 100 µM (inactive),> 100 µM (inactive),> 100 µM (inactive),> 100 µM (inactive),> 100 µM (inactive),> 100 µM (inactive),,> 100 µM (inactive)
COC(=O)C(C(=O)C(=O)Nc1ccc(C(F)(F)F)cc1[N+](=O)[O-])c1csc(-n2nc(-c3ccccc3)cc2-c2ccccc2)n1 (centres undefined),,,> 100 µM (inactive),> 100 µM (inactive),> 100 µM (inactive),> 100 µM (inactive),,,> 100 µM (inactive)
Cc1cc2c(C(C)C)c(O)c(O)c(/C=N\CCO)c2c(O)c1-c1c(C)cc2c(C(C)C)c(O)c(O)c(/C=N/CCO)c2c1O,2.87 µM (inactive),3.33 µM (inactive),1.23 µM (inactive),3.24 µM (inactive),,1.62 µM (inactive),1.91 µM (inactive),2.33 µM (inactive),1.86 µM (inactive)
C[C@@H]1OC(=O)N2CCCC(=C3SCCCS3)C12 (some centres undefined),36.6 µM (inactive),,25.1 µM (inactive),> 100 µM (inactive),93.8 µM (inactive),97.7 µM (inactive),52.5 µM (inactive),,45.6 µM (inactive)
O=[N+]([O-])c1ccc(C2CC(c3ccccc3Cl)=Nc3ccccc3[S+]2[O-])cc1 (centres undefined),5.89 µM (inactive),2.06 µM (inactive),2.05 µM (inactive),13.1 µM (inactive),2.59 µM (inactive),2.95 µM (inactive),14.1 µM (inactive),5.27 µM (inactive),2.77 µM (inactive)
COC(=O)CCC(=O)CC(=O)C(=O)Nc1c(Cl)cc([N+](=O)[O-])cc1Cl,> 100 µM (inactive),65.6 µM (inactive),23.5 µM (inactive),> 100 µM (inactive),> 100 µM (inactive),> 100 µM (inactive),> 100 µM (inactive),> 100 µM (inactive),> 100 µM (inactive)
Nc1nc2c(ncn2CCCC(c2ccccc2)P(=O)(O)O)c(=O)[nH]1 (centres undefined),,> 100 µM (inactive),> 100 µM (inactive),> 100 µM (inactive),> 100 µM (inactive),> 100 µM (inactive),62.4 µM (inactive),,> 100 µM (inactive)
O=C1C(N2C(=O)c3ccccc3C2=O)CN1C(COCc1ccccc1)c1ccc(OCc2ccccc2)cc1 (centres undefined),> 100 µM (inactive),> 100 µM (inactive),> 100 µM (inactive),> 100 µM (inactive),> 100 µM (inactive),> 100 µM (inactive),,,> 100 µM (inactive)
COc1ccc(-c2nc3c(nc2-c2ccc(OC)cc2)N(C)S(=O)(=O)N=C3N)cc1,,33.3 µM (inactive),17.3 µM (inactive),,40.6 µM (inactive),41.6 µM (inactive),47.2 µM (inactive),,31.5 µM (inactive)
COc1c(OC2OC(CO)C(O)C(O)C2O)cc2c(c1OC)-c1ccc(OC)c(=O)cc1[C@@H](NC(C)=O)CC2 (some centres undefined),29.3 µM (inactive),> 100 µM (inactive),44.7 µM (inactive),61 µM (inactive),> 100 µM (inactive),> 100 µM (inactive),> 100 µM (inactive),> 100 µM (inactive),60.1 µM (inactive)
